Results from US9371321B2, “Azaindole derivatives” (Takeda Pharmaceutical Company Limited, priority 2014, dated 2016).
In brackets after ≈: the same amount, converted by molar mass.

target: T1, PI3Kδ (recombinant GST-tagged PIK3CD co-expressed with PIK3R1, p85α) (Homo sapiens, UniProt O00329); assay: modified PIK3CD Adapta TR-FRET kinase assay (PI3Kδ inhibition); format: biochemical; conditions: 2 μM ATP, 50 μM PIP2, room temperature, 1 hour
T1 construct: The protein is full length and co-expressed with untagged PIK3R1; GST; purchased Invitrogen PV5274
T1 sequence (O00329 whole entry): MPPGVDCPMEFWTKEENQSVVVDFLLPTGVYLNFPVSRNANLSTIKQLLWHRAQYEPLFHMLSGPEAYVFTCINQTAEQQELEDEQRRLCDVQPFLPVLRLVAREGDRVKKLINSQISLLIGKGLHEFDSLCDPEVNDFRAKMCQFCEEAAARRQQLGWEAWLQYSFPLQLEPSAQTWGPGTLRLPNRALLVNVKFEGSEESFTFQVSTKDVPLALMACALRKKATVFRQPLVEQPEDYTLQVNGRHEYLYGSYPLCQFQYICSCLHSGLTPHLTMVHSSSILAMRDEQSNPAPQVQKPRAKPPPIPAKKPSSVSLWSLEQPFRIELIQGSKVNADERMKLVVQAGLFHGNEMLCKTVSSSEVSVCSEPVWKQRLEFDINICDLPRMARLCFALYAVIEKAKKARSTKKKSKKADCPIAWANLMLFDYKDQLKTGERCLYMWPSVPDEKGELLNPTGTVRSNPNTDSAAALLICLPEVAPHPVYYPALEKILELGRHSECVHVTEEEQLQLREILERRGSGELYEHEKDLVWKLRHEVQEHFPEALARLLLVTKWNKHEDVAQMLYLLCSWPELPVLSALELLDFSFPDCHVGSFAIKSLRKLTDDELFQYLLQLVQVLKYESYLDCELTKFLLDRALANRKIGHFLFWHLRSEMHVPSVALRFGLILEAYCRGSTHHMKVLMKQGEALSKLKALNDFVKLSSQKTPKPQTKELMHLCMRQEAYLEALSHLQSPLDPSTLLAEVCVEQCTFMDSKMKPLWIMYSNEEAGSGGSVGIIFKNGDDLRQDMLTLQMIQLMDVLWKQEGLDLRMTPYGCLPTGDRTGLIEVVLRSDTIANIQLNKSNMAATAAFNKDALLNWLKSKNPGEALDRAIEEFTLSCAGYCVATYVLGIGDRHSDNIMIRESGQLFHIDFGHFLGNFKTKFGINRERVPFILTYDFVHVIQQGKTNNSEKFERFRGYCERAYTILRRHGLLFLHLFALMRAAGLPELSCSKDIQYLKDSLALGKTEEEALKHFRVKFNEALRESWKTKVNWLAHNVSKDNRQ
T1 sequence (P27986 whole entry partner): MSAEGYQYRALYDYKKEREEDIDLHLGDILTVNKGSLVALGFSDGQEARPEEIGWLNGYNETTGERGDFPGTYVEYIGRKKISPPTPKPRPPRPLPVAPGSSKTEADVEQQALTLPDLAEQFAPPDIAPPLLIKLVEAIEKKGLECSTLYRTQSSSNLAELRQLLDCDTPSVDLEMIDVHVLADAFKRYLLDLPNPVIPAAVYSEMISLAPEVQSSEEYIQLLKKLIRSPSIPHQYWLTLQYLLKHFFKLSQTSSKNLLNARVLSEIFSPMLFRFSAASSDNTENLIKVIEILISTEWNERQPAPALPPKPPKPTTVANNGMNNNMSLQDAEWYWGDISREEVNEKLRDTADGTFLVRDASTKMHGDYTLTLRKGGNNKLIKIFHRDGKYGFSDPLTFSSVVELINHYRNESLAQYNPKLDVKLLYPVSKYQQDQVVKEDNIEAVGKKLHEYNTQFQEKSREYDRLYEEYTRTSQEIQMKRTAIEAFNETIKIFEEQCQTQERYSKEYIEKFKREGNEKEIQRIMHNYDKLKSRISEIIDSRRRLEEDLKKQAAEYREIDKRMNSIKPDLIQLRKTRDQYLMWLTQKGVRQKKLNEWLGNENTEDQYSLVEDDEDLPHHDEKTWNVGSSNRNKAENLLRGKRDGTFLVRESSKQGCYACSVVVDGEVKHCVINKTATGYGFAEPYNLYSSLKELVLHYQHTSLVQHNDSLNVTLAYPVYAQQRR
Protocol: The activity of compounds as PI3Kδ inhibitors may be determined by a variety of methods, including in vitro and in vivo methods. The following in vitro assay measures a test compound's ability to inhibit PI3Kδ-mediated phosphorylation of PIP2 and ATP.
Recombinant GST-tagged PIK3CD is purchased from Invitrogen (Part Number: PV5274). The protein is full length and co-expressed with untagged PIK3R1, phosphoinositide-3-kinase regulatory subunit 1 (p85α). The protein is stored at −20° C. in 50 mM TRIS (pH 7.5), 150 mM NaCl, 0.5 mM EDTA, 0.02% Triton® X-100, 2 mM DTT, and 50% glycerol.
A modified PIK3CD Adapta® assay (Invitrogen, Carlsbad, Calif.) is used to measure PI3Kδ inhibition of the example compounds. The assay has two phases. In the first phase, kinase reaction components, which include the enzyme (PIK3CD), substrates (PIP2, ATP), test compound (inhibitor), and assay buffer are added to each well, and the reaction is allowed to incubate for a pre-determined period of time. After reaction, a detection solution composed of a Eu (europium)-labeled anti-ADP antibody, Alexa Fluor® 647-labeled ADP tracer, and EDTA (to stop the kinase reaction) is added to each assay well. In this second phase, ADP formed by the kinase reaction displaces the Alexa Fluor® 647-labeled ADP tracer from the antibody, resulting in a decrease in time-resolved fluorescence resonance energy transfer (TR-FRET) signal. In the presence of the inhibitor, the amount of ADP formed by the kinase reaction is reduced, and the resulting intact antibody-tracer interaction maintains a high TR-FRET signal.
The assay uses black Greiner® 384-well plates (784076). The reaction buffer contains 50 mM Hepes (pH 7.5), 3 mM MgCl2, 1 mM EGTA, 100 mM NaCl, 0.03% CHAPS; 2 mM DTT is added fresh prior to each experiment. Enzyme (4 μL, estimated 1.5 nM in buffer) is first added to the wells of the plate. Next, test compounds (2 μL) from a source plate (5% dilution plate) are introduced into the wells. The final DMSO concentration in each assay well is 1%. […] Other wells contain test compounds serially diluted across the plate 11 times for a total of 12 data points. The kinase reactions are carried out at room temperature and are initiated by the addition of 4 μL of solution containing 2 μM ATP and 50 μM PIP2. Each reaction is stopped after 1 hour±10 minutes via addition of […], which contains a final assay concentration of 3 nM Alexa Fluor® 647-labeled ADP tracer, 2 nM Eu-anti-ADP Antibody, and 10 mM EDTA. After allowing the solutions to equilibrate for 30±10 minutes, a PHERAstar plate reader is used to excite the Eu donor (at 337 nm) and to detect emission from the Alexa Fluor® 647 at 665 nm. This emission signal is referenced or “ratioed” to the emission from Eu at 620 nm. The emission ratio (665 nm/620 nm) from each well is collected and converted to percent conversion using a standard curve for the assay conditions: % conversion=B*(C+A−emission ratio)/(emission ratio−C), where “A” and “C” are the maximum and minimum values of the emission ratio obtained from the standard curve of emission ratio vs. % conversion (ATP-ADP); “B” is the emission ratio corresponding to the % conversion at the EC50 value for the ADP Tracer-Eu anti-ADP antibody complex. The percent inhibition for a given inhibitor concentration is computed from % conversion for the reaction and for the positive and negative controls. Corresponding IC50 values (molar concentration at 50% inhibition) are calculated by non-linear curve fitting of the compound concentrations and values of percent inhibition to the standard IC50 equation.

Compound	IC50 [nM]
Cc1nc(N)nc(N[C@@H](C)c2nc3ccn(C)c3cc2N2CCC[C@H](N)C2)c1C#N (single isomer, unassigned) [Example 5]	5.4
CN[C@H]1CCN(c2cc3c(ccn3C)nc2[C@H](C)Nc2nc(N)nc(C)c2C#N)C1 [Example 3, 2-Amino-4-methyl-6-((S)-1-(1-methyl-6-((S)-3-(methylamino)pyrrolidin-1-yl)-1H-pyrrolo[3,2-b]pyridin-5-yl)ethylamino)pyrimidine-5-carbonitrile]	5.6
Cc1nc(N)nc(N[C@@H](C)c2nc3ccn(C)c3cc2N2CCN[C@@H](C)C2)c1C#N [Example 6, 2-Amino-4-methyl-6-((S)-1-(1-methyl-6-((S)-3-methylpiperazin-1-yl)-1H-pyrrolo[3,2-b]pyridin-5-yl)ethylamino)pyrimidine-5-carbonitrile]	5
Cc1nc(N)nc(N[C@@H](C)c2nc3ccn(C)c3cc2NC2CCNCC2)c1C#N [Example 15, (S)-2-Amino-4-methyl-6-((1-(1-methyl-6-(piperidin-4-ylamino)-1H-pyrrolo[3,2-b]pyridin-5-yl)ethyl)amino)pyrimidine-5-carbonitrile]	5.5
Cc1nc(N)nc(N[C@@H](C)c2nc3ccn(C)c3cc2C2=CCC(N)CC2)c1C#N (stereo partly drawn) [Example 17, 2-Amino-4-(((1S)-1-(6-(4-aminocyclohex-1-en-1-yl)-1-methyl-1H-pyrrolo[3,2-b]pyridin-5-yl)ethyl)amino)-6-methylpyrimidine-5-carbonitrile]	8.5
CCc1nc(N)nc(N[C@@H](C)c2nc3ccn(C)c3cc2N2CCNCC2)c1C#N [Example 20, (S)-2-Amino-4-ethyl-6-((1-(1-methyl-6-(piperazin-1-yl)-1H-pyrrolo[3,2-b]pyridin-5-yl)ethyl)amino)pyrimidine-5-carbonitrile]	220
(S)-2-Amino-4-methyl-6-(1-(1-methyl-6-(piperazin-1-yl)-1H-pyrrolo[3,2-b]pyridin-5-yl)ethylamino)pyrimidine-5-carbonitrile [Example 1]	0.7

Now from value to compound:

IC50 [nM]	Compound
5	Cc1nc(N)nc(N[C@@H](C)c2nc3ccn(C)c3cc2N2CCCNCC2)c1C#N [Example 2, (S)-4-(1-(6-(1,4-Diazepan-1-yl)-1-methyl-1H-pyrrolo[3,2-b]pyridin-5-yl)ethylamino)-2-amino-6-methylpyrimidine-5-carbonitrile]
4.2	Cc1nc(N)nc(N[C@@H](C)c2nc3ccn(C)c3cc2N2CC[C@@H](N)C2)c1C#N (single isomer, unassigned) [Example 7]
3.5	Cc1nc(N)nc(N[C@@H](C)c2nc3ccn(C)c3cc2[C@@H]2CCNC2)c1C#N (single isomer, unassigned) [Example 10]
2.9	Cc1nc(N)nc(N[C@@H](C)c2nc3ccn(C)c3cc2N2CCC[C@@H](N)C2)c1C#N (single isomer, unassigned) [Example 4]
2.6	Cc1nc(N)nc(N[C@@H](C)c2nc3ccn(C)c3cc2N2CC[C@H](N)C2)c1C#N (single isomer, unassigned) [Example 8]
2.4	Cc1nc(N)nc(N[C@@H](C)c2nc3ccn(C)c3cc2N(C)C2CNC2)c1C#N [Example 16, (S)-2-Amino-4-((1-(6-(azetidin-3-yl(methyl)amino)-1-methyl-1H-pyrrolo[3,2-b]pyridin-5-yl)ethyl)amino)-6-methylpyrimidine-5-carbonitrile]
2.2	Cc1nc(N)nc(N[C@@H](C)c2nc3ccn(C)c3cc2N2CCN[C@H](C)C2)c1C#N [Example 9, 2-Amino-4-methyl-6-((S)-1-(1-methyl-6-((R)-3-methylpiperazin-1-yl)-1H-pyrrolo[3,2-b]pyridin-5-yl)ethylamino)pyrimidine-5-carbonitrile]
1.7	Cc1nc(N)nc(N[C@@H](C)c2nc3ccn(C)c3cc2C2CCC(N)CC2)c1C#N (mixture of isomers) [Example 18, (S)-2-Amino-4-((1-(6-(4-aminocyclohexyl)-1-methyl-1H-pyrrolo[3,2-b]pyridin-5-yl)ethyl)amino)-6-methylpyrimidine-5-carbonitrile]
1.4	Cc1nc(N)nc(N[C@@H](C)c2nc3ccn(C)c3cc2C2CCNCC2)c1C#N [Example 12, (S)-2-Amino-4-methyl-6-(1-(1-methyl-6-(piperidin-4-yl)-1H-pyrrolo[3,2-b]pyridin-5-yl)ethylamino)pyrimidine-5-carbonitrile]
1.3	Cc1nc(N)nc(N[C@@H](C)c2nc3ccn(C)c3cc2[C@H]2CCNC2)c1C#N (single isomer, unassigned) [Example 11]
1	C[C@H](Nc1nc(N)nc(N)c1C#N)c1nc2ccn(C)c2cc1N1CCNCC1 [Example 13, (S)-2,4-Diamino-6-(1-(1-methyl-6-(piperazin-1-yl)-1H-pyrrolo[3,2-b]pyridin-5-yl)ethylamino)pyrimidine-5-carbonitrile]
0.8	CC[C@H](Nc1nc(N)nc(C)c1C#N)c1nc2ccn(C)c2cc1N1CCNCC1 [Example 19, (S)-2-Amino-4-methyl-6-((1-(1-methyl-6-(piperazin-1-yl)-1H-pyrrolo[3,2-b]pyridin-5-yl)propyl)amino)pyrimidine-5-carbonitrile]
0.6	4-((S)-1-(6-((1S,4S)-2,5-Diazabicyclo[2.2.1]heptan-2-yl)-1-methyl-1H-pyrrolo[3,2-b]pyridin-5-yl)ethylamino)-2-amino-6-methylpyrimidine-5-carbonitrile [Example 14]

tested on: not given; assay: not given; conditions: pH 6.8

Thermodynamic Solubility in JP2 [µg/mL]	Compound
>1830	4-((S)-1-(6-((1S,4S)-2,5-Diazabicyclo[2.2.1]heptan-2-yl)-1-methyl-1H-pyrrolo[3,2-b]pyridin-5-yl)ethylamino)-2-amino-6-methylpyrimidine-5-carbonitrile [Example 14]

tested on: not listed separately; assay: Thermodynamic solubility assay in JP2; conditions: JP2 (Japan Pharmacopoeia 2nd fluid for dissolution), 37 °C, pH 6.8, aqueous buffer, thermodynamic from solid
Protocol: Testing media for both assays are prepared as follows: • JP1 (Japan Pharmacopoeia 1st fluid for dissolution): In a 1 L volumetric flask, dissolve 2.0 g sodium chloride in about 500 mL deionized water. Add 84 mL of 1M hydrochloric acid and dilute to volume with deionized water. Mix thoroughly. • JP2 (Japan Pharmacopoeia 2nd fluid for dissolution): In a 1 L volumetric flask dissolve 6.806 g of anhydrous potassium phosphate monobasic in about 500 mL of deionized water. Add 23.6 mL of 1M sodium hydroxide and dilute to volume with deionized water. Mix thoroughly. • GCDC (20-mM sodium glycochenodeoxycholate in JP2): In a 50 mL volumetric flask, dissolve 0.475 g of sodium glycochenodeoxycholate with ˜30 mL JP2. Dilute to volume with additional JP2. Mix thoroughly. • Other pH buffers between pH 2-6 can also be prepared as additional testing media.
About 3 mg of compound is weighed into an HPLC vial. Testing medium (0.5 mL) is then added to the compound vial. The vial is sealed with a screw-on cap and placed in an incubator set at 37° C. with orbital shaking at 150 RPM for overnight equilibration. At the end of equilibration, the final pH is measured, and whether the compound is totally dissolved (clear solution) or not (solid in vial) is recorded. Then the sample mixture is transferred to a centrifuge tube with filter insert (0.45 μm nylon filter) and centrifuge filtered. The filtrate is diluted appropriately (2 to 50× dilution) before HPLC analysis. A calibration standard is prepared by dissolving ˜5 mg of compound in diluent and q.s. to volume in a 20 mL volumetric flask. A separate QC standard is prepared at about the same concentration. The default diluent is 1:1 acetonitrile/water. Alternative diluents such as 1:1 DMA/water and other mixtures may also be used depending on the solubility behavior of the compound. The calibration response factor is calculated by dividing the standard peak area with standard concentration. The sample solubility in a test medium is calculated by dividing the sample peak area with the corresponding standard response factor and multiplied by sample dilution factor. The response factor from QC standard is also calculated and compared with calibration standard. If the response factors of the calibration and QC standard differ by more than 5%, new calibration and QC standards should be prepared and samples are reanalyzed with new standards.

solubility thermodynamic [µg/mL]	Compound
20 (≈ 51 µM)	C[C@H](Nc1nc(N)nc(N)c1C#N)c1nc2ccn(C)c2cc1C1CCOCC1 [A, reference compound]
26 (≈ 66.1 µM)	C[C@H](Nc1nc(N)nc(N)c1C#N)c1nc2ccn(C)c2cc1N1CCOCC1 [B, reference compound]
1730 (≈ 4270 µM)	Cc1nc(N)nc(N[C@@H](C)c2nc3ccn(C)c3cc2N2CCN[C@@H](C)C2)c1C#N [Example 6, 2-Amino-4-methyl-6-((S)-1-(1-methyl-6-((S)-3-methylpiperazin-1-yl)-1H-pyrrolo[3,2-b]pyridin-5-yl)ethylamino)pyrimidine-5-carbonitrile]
150 (≈ 384 µM)	Cc1nc(N)nc(N[C@@H](C)c2nc3ccn(C)c3cc2C2CCNCC2)c1C#N [Example 12, (S)-2-Amino-4-methyl-6-(1-(1-methyl-6-(piperidin-4-yl)-1H-pyrrolo[3,2-b]pyridin-5-yl)ethylamino)pyrimidine-5-carbonitrile]

same assay, conditions: solid free base, JP2 (Japan Pharmacopoeia 2nd fluid), 37° C., overnight equilibration

Compound	Thermodynamic Solubility in JP2 [µg/mL]
(S)-2-Amino-4-methyl-6-(1-(1-methyl-6-(piperazin-1-yl)-1H-pyrrolo[3,2-b]pyridin-5-yl)ethylamino)pyrimidine-5-carbonitrile [Example 1]	2195
